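48-hour exposure; five concentrations; linearly interpolated endpoints. GI50 is the concentration that inhibits growth by half.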 Activity calls are given as the source filed them. No stated cut-off is given here; in the data, active = GI50 up to about 1.1 µM and inactive = higher.
Columns and labels:
Experiment in all cases: NCI-60 cell line screen, 48 h
Malme-3M = tested on: Malme-3M
U-251 = tested on: U-251
MCF7 = tested on: MCF7
SF-539 = tested on: SF-539
SR = tested on: SR
DU-145 = tested on: DU-145
HOP-62 = tested on: HOP-62
HOP-92 = tested on: HOP-92
EKVX = tested on: EKVX
IGROV-1 = tested on: IGROV-1
OVCAR-3 = tested on: OVCAR-3
RPMI-8226 = tested on: RPMI-8226
UACC-62 = tested on: UACC-62
COLO 205 = tested on: COLO 205
MDA-MB-435 = tested on: MDA-MB-435
HCT-116 = tested on: HCT-116
NCI-H460 = tested on: NCI-H460
NCI-H23 = tested on: NCI-H23
CAKI-1 = tested on: CAKI-1
SF-268 = tested on: SF-268
OVCAR-5 = tested on: OVCAR-5
BT-549 = tested on: BT-549
HT-29 = tested on: HT-29
NCI/ADR-RES = tested on: NCI/ADR-RES
OVCAR-4 = tested on: OVCAR-4
PC-3 = tested on: PC-3
MDA-MB-231 = tested on: MDA-MB-231
SN12C = tested on: SN12C
SK-MEL-5 = tested on: SK-MEL-5
MOLT-4 = tested on: MOLT-4
NCI-H226 = tested on: NCI-H226
Hs-578T = tested on: Hs-578T
KM12 = tested on: KM12
LOX IMVI = tested on: LOX IMVI
A498 = tested on: A498
SW-620 = tested on: SW-620
SNB-19 = tested on: SNB-19
SNB-75 = tested on: SNB-75
NCI-H522 = tested on: NCI-H522
OVCAR-8 = tested on: OVCAR-8
SK-OV-3 = tested on: SK-OV-3
786-0 = tested on: 786-0
CCRF-CEM = tested on: CCRF-CEM
TK-10 = tested on: TK-10
MDA-N = tested on: MDA-N
SK-MEL-2 = tested on: SK-MEL-2
UACC-257 = tested on: UACC-257
RXF 393 = tested on: RXF 393
UO-31 = tested on: UO-31
HCT-15 = tested on: HCT-15
SF-295 = tested on: SF-295
M14 = tested on: M14
ACHN = tested on: ACHN
K562 = tested on: K562
HL-60 = tested on: HL-60
A549 = tested on: A549
HCC 2998 = tested on: HCC 2998
T47D = tested on: T47D

In the case of `Nc1[nH]c(Nc2ccc(Cl)c(Cl)c2)nc2ncnc1-2`, the GI50 (Malme-3M) is reported as 18.2 µM (inactive), the GI50 (U-251) is reported as 15.2 µM (inactive) and the GI50 (MCF7) is reported as 14.6 µM (inactive). For the same molecule, the GI50 (SF-539) was 12.4 µM (inactive), the GI50 (SR) was 11 µM (inactive) and the GI50 (DU-145) was 7.41 µM (inactive). The GI50 (HOP-62) was 12.9 µM (inactive), the GI50 (HOP-92) was 16.6 µM (inactive) and the GI50 (EKVX) was 1.98 µM (inactive). The GI50 (IGROV-1) was 4.76 µM (inactive), the GI50 (OVCAR-3) was 11.7 µM (inactive) and the GI50 (RPMI-8226) was 14.5 µM (inactive). The GI50 (UACC-62) was 11.9 µM (inactive), the GI50 (COLO 205) was 20.7 µM (inactive) and the GI50 (MDA-MB-435) was 16.6 µM (inactive). The GI50 (HCT-116) was 15.1 µM (inactive), the GI50 (NCI-H460) was 15.5 µM (inactive) and the GI50 (NCI-H23) was 18.3 µM (inactive). The GI50 (CAKI-1) was 10.8 µM (inactive), the GI50 (SF-268) was 11 µM (inactive) and the GI50 (OVCAR-5) was 25.5 µM (inactive). For the same molecule, the GI50 (BT-549) was 12.9 µM (inactive), the GI50 (HT-29) was 14.7 µM (inactive) and the GI50 (NCI/ADR-RES) was 15.9 µM (inactive). For the same molecule, the GI50 (OVCAR-4) was 20.3 µM (inactive), the GI50 (PC-3) was 12 µM (inactive) and the GI50 (MDA-MB-231) was 14 µM (inactive). For the same molecule, the GI50 (SN12C) was 23.6 µM (inactive), the GI50 (SK-MEL-5) was 14.6 µM (inactive) and the GI50 (MOLT-4) was 11.7 µM (inactive). For the same molecule, the GI50 (NCI-H226) was 20.6 µM (inactive), the GI50 (Hs-578T) was 5.87 µM (inactive) and the GI50 (KM12) was 13.7 µM (inactive). For the same molecule, the GI50 (LOX IMVI) was 14.8 µM (inactive), the GI50 (A498) was 6.87 µM (inactive) and the GI50 (SW-620) was 18.1 µM (inactive). For the same molecule, the GI50 (SNB-19) was 14.1 µM (inactive), the GI50 (SNB-75) was 8.36 µM (inactive) and the GI50 (NCI-H522) was 15.3 µM (inactive). For the same molecule, the GI50 (OVCAR-8) was 14.7 µM (inactive), the GI50 (SK-OV-3) was 15.3 µM (inactive) and the GI50 (786-0) was 15.7 µM (inactive). For the same molecule, the GI50 (CCRF-CEM) was 16.1 µM (inactive), the GI50 (TK-10) was 13.2 µM (inactive) and the GI50 (MDA-N) was 17.5 µM (inactive). For the same molecule, the GI50 (SK-MEL-2) was 17.5 µM (inactive), the GI50 (UACC-257) was 17.5 µM (inactive) and the GI50 (RXF 393) was 4.78 µM (inactive). For the same molecule, the GI50 (UO-31) was 8.73 µM (inactive), the GI50 (HCT-15) was 15.3 µM and the GI50 (SF-295) was 17.5 µM (inactive). For the same molecule, the GI50 (M14) was 16 µM (inactive), the GI50 (ACHN) was 9.89 µM (inactive) and the GI50 (K562) was 16.1 µM (inactive). The GI50 (HL-60) was 6.67 µM (inactive), the GI50 (A549) was 13.9 µM (inactive) and the GI50 (HCC 2998) was 14.4 µM (inactive). For the same molecule, the GI50 (T47D) was 8.55 µM (inactive).
